We go through 3 molecules from patent US6933288B2, “Pyranosyl cytosines: pharmaceutical formulations and methods” (ISIS Pharmaceuticals, Inc., priority 2002, dated 2005).

Each structure is given as a SMILES string.

This experiment has as its system C. Albicans. The experiment can be described thus: Activity against fungi (C. albicans). In kind it is cell-based. The settings on record: Table 10. An excerpt:
Table 10 presents results of activity assays for selected compounds against fungi, as exemplified by activity against c. albicans according to assays known in the art.

For the molecule `CNCC(=O)NC(CCN)C(=O)NC1C(C(=O)N2CCNCC2)OC(n2ccc(N)nc2=O)C(O)C1O` (stereo not drawn) [compound 5], the “Activity against C. Albicans” value was 1 to 3 µM. Consider `CNCCNC(CCN)C(=O)CC1C(C(=O)N2CCNCC2)OC(n2ccc(N)nc2=O)C(O)C1O` (stereo not drawn) [compound 1], for which the “Activity against C. Albicans” value was 1 to 3 µM. `CNCC(=O)NC(CCN)C(=O)CC1C(C(=O)N2CCNCC2)OC(n2ccc(NCCCN3CCN(C)CC3)nc2=O)C(O)C1O` (stereo not drawn) [compound 2]: the “Activity against C. Albicans” value is 3 to 6 µM.
